Assay results taken from patent publication US10815219B2, “2,4-diaminoquinazoline derivatives for inhibiting endoplasmic reticulum (ER) stress” (The Board of Regents of the University of Oklahoma, priority 2017, dated 2020).
Where two headings read alike, the source gives them in different places.

Experiments:
βTC6 cells = assay: βTC6 cell viability after Tm treatment (MTT); assay type: cell-based; details: Tm 0.25 μg/mL, 72 h, FIG. 3C
Text: To rule out the possibility of an ATP-specific (rather than viability) effect of the compounds, we used the MTT assay, which measures the activity of NAD(P)H-dependent cellular oxidoreductase enzymes, as an orthogonal method to measure cell viability. […] To confirm that the protective effect of 9c on β cells is not INS-1 cell-specific, another β cell line, βTC6, was used. […] To determine whether the protective effect of 9c on β cells is specific to Tm-induced stress, we used another ER stressor, BFA, which inhibits a key guanine nucleotide exchange factor essential for the transport of proteins from the ER to the Golgi, to treat INS-1 cells.
INS-1 cells or βTC6 cells were seeded at 3×10^3 cells/well in a 384-well plate and treated with compounds at the indicated concentrations. After 3 d treatment, the medium was aspirated and 10 μl of MTT reagent (Cayman Chemical, MI, USA, prepared according to manufacturer's instruction) to each well was added and mixed gently for one minute on an orbital shaker. The cells were then incubated for three hours at 37° C. in a CO2 incubator. After incubation, add 100 μl of crystal dissolving solution to each well, and incubate for 4 hours in a 37° C. CO2 incubator. Viability will be measured for the absorbance to each sample at 570 nm using EnVision multilabel plate reader (PerkinElmer, MA, USA).

INS-1 cells = assay: INS-1 cell survival after Tm treatment (CellTiter-Glo, intracellular ATP); assay type: cell-based, rat; details: for EC50: Rattus norvegicus, read-out: EC50
Protocol: A structure-activity-relationship (SAR) study was thus conducted to improve the weak potency of lead compound 5a. Newly synthesized or commercially available compounds were tested for their β-cell-protective activity against ER stress in rat INS-1 β-cells. […] Maximum activity value in the tables is reported as % rescue from Tm (0.1 μg/mL)-induced reduction of cell viability. The values for Tm treatment alone and control (DMSO, without Tm) treatment are designated as 0% and 100%, respectively in all tables. EC50 values (the concentrations that reach half-maximal activity) for INS-1 cell viability were calculated with GraphPad Prism from the data of ten 2-fold serial titration points in all tables. All experiments were performed in triplicate in all tables.
INS-1 cells or βTC6 cells were seeded at 3×10^3 cells/well in a 384-well plate and treated with compounds at the indicated concentrations. After 3 d treatment, the medium was aspirated and 20 μL/well of CellTiter-Glo reagent (Promega, WI, USA) was added for the detection of intracellular ATP levels. Cell viability was measured with an EnVision multilabel plate reader (PerkinElmer, MA, USA).

primary human β cells = assay: TUNEL staining of primary human islet β cells treated with Tm; assay type: cell-based; details: primary human islets, Tm 1 μg/mL, 9c 10 μM, 48 h; Tm alone 15%, DMSO 2.5%
Text: We determined whether 9c suppresses the apoptosis of primary human β cells induced by Tm treatment as assessed by TUNEL, which detects fragmentation of DNA, a marker of apoptotic cell death. […] Next, we investigated whether 9c restored the Tm-induced insulin secretion defect. […] ER stress induces activation of three branches of UPR (PERK, IRE1α, and ATF6), leading to up-regulation of ATF4, XBP1s, Bip, […], CHOP and eventual activation caspase 3 and cell apoptosis, while diminishing the expression of PDX1, MAFA and insulin genes, leading to β cell dysfunction. Compound 9c protects β cell against ER stress-mediated dysfunction and death by down-regulating ATF4, XBP1s, Bip, GRP94, CHOP, and caspase 3 and up-regulating PDX1, MAFA and insulin genes.
Primary human islets were washed with PBS and fixed with 4% paraformaldehyde for 30 min. Fixed cells were then blocked in 5% normal donkey serum for 30 min. Polyclonal guinea pig anti-insulin (A0564, Dako, 1:500 dilution) was used as primary antibody. Donkey Cy3 anti-guinea pig IgG was used as the secondary antibody. TUNEL staining was performed with In Situ Cell Death Detection Kit-Fluorescein (Roche) according to the manufacturer's instructions. DAPI was used for nuclear counter-staining. Images were taken with an Olympus FV1000 confocal microscope.

[1] = tested on: cleaved caspase-3 and PARP; assay: Western blotting of cleaved caspase-3 and cleaved PARP in Tm-treated INS-1 cells; assay type: cell-based, rat; details: Tm 0.1 μg/mL, 9c 20 μM, 24 h, FIG. 4A
Protocol: To determine whether the increase in cell viability following treatment with 9c was caused by a suppression of apoptotic cell death, levels of cleaved caspase-3 and cleaved PARP were assessed by Western blotting. Caspase-3, a member of executioner caspases, plays essential roles in initiating apoptotic signaling and executing the final stages of cell death as it is responsible for the proteolytic cleavage of many key proteins, such as the nuclear enzyme poly (ADP-ribose) polymerase (PARP) which is a family of proteins involved in a number of cellular processes involving DNA repair and cell death. […] However, upon severe ER stress, caspase 3 undergoes proteolytic cleavage to produce two subunits that dimerize to form the active enzyme, which in turns cleaves PARP.
INS-1 cells were seeded in 60-mm dishes at 8×10^5 cells/dish and treated for the indicated times. Cells were then washed with PBS and lysed with lysis buffer (Cell Signaling Technology, Danvers, Mass.) containing EDTA (Thermo, IL) and phosphatase inhibitors (Thermo). Aliquots of 20 μg total protein were separated on 7% SDS-PAGE gels (Life Technologies) and transferred to PVDF membranes (Life Technologies). The membranes were probed with primary antibodies followed by the appropriate HRP-conjugated secondary antibodies (goat anti-rabbit IgG and goat anti-mouse IgG, 1:3000; Santa Cruz Biotechnology, CA, USA). […]

COc1ccc(CNc2nc(N3CCCCC3CO)nc3ccccc23)cc1 (racemic) [Compound 9c, (1-(4-((4-methoxybenzyl)amino)quinazolin-2-yl)piperidin-2-yl)methanol]
viability of βTC6 cells (MTT, NAD(P)H-dependent oxidoreductase activity) (βTC6 cells): rescued the viability of βTC6 cells in a dose-dependent manner
Maximum activity (INS-1 cells; % rescue from Tm (0.1 μg/mL)-induced reduction of cell viability, 72 h, Tm alone 0%, DMSO 100%, Table 3): 80.4%
maximum activity (rescue) (INS-1 cells; % rescue from Tm-induced reduction of INS-1 cell viability): 80%
concentration exhibiting the maximum protective activity (INS-1 cells; INS-1 cells, Tm 0.1 μg/mL, 72 h, based on dose-dependent curves): 5 µM
EC50 (INS-1 cells; INS1, 72 h, INS-1 cell viability, Tm 0.1 μg/mL, 72 h, ten 2-fold serial titration points, Table 3): 560 ± 180 nM
EC50 (INS-1 cells; INS1, running text, INS-1 cell viability in presence of Tm): 560 nM
percentage of TUNEL+ insulin+ cells (primary human β cells): 3.5%
cleaved caspase-3 and cleaved PARP protein levels [1]: significantly reversed Tm-induced cleavage of both caspase-3 and PARP
